Experimental findings from patent publication US20260158017A1, “KIF18A INHIBITOR” (WIGEN BIOMEDICINE TECHNOLOGY (SHANGHAI) CO., LTD., priority 2021, published 2026) are described below.

Bounds are passed on as bounds.

The target in the assay is T1, Recombinant human KIF18A (1-467His-tagged) protein (Homo sapiens, UniProt Q8NI77).
T1 construct: Recombinant human KIF18A (1-467His-tagged) protein; His; made in house
T1 sequence (Q8NI77 1-467): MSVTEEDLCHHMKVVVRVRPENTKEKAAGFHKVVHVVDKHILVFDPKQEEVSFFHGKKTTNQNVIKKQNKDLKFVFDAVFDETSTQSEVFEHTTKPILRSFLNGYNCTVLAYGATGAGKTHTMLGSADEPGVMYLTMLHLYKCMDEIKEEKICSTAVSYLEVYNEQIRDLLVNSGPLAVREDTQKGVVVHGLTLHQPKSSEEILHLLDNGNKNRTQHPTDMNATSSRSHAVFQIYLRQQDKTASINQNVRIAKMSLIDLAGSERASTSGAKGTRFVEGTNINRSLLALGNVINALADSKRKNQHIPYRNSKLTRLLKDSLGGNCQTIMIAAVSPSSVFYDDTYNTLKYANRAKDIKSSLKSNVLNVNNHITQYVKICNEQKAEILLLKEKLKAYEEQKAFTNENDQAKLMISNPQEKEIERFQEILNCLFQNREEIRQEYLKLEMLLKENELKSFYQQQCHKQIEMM
T1 sequence (P02550 whole entry partner): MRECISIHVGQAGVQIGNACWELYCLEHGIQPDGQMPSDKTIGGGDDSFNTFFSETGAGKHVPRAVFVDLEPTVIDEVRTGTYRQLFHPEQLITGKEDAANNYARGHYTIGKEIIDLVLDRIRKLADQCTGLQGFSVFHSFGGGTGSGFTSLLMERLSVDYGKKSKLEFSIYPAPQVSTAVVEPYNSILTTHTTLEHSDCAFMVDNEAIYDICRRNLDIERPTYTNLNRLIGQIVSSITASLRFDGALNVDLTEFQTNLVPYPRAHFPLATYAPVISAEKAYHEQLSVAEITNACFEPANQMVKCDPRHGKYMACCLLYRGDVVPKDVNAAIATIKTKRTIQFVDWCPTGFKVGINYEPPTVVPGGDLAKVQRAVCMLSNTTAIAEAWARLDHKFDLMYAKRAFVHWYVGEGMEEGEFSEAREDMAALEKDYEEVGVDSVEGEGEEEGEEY
T1 sequence (P02554 whole entry partner): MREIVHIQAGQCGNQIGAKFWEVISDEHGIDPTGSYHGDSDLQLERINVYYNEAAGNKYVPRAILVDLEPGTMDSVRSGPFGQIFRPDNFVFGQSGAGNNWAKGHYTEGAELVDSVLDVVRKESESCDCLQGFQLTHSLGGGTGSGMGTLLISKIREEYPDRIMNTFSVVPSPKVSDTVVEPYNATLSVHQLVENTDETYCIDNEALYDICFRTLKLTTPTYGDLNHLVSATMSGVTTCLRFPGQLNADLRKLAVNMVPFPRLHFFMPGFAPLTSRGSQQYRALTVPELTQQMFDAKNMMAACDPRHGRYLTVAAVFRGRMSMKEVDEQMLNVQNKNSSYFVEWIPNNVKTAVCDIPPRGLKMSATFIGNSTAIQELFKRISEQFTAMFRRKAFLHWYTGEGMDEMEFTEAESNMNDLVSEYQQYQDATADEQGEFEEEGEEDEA
Nature of the assay: KIF18A enzyme assay (microtubule-stimulated ATPase activity, ADP-Glo). The note with it: 30 nM KIF18A, 75 μM ATP, 30 μg/mL pig microtubules; read-out: Inhibitory activity against KIF18A IC50. The class given is biochemical. How it is done:
In Vitro Assay of the Compounds of the Present Invention for Inhibiting Enzymatic Activity of KIF18A
KIF18A enzyme assay: The enzymatic activity of KIF18A after treatment with the compounds was measured by an assay of microtubule-stimulated ATPase activity. ADP generated from the ATPase reaction was measured in this assay. The compounds were serially diluted 2-fold in DMSO over a range of 22 concentration points. […] Concentrations of KIF18A protein, microtubules, and ATP in the reaction were optimized for a standardized homogenous enzyme assay using an ADP-Glo kinase/ATPase assay kit. A reaction buffer [(15 mM Tris, pH 7.5), 10 mM MgCl2, 0.01% PluronicF-68, 1 μM paclitaxel, and 30 μg/mL pig microtubules] was prepared. […] The resulting reaction mixture was incubated at room temperature for another 15 min. 5 μL of ADP-Glo reagent and 2.5 μL of the reaction mixture were mixed and the resulting mixture was incubated at room temperature for 40 min. 10 μL of ADP-Glo detection reagent was added and the mixture was incubated at room temperature for 40 min. Luminescence was read using a microplate reader and compared with that of the DMSO group, and then the inhibition percentages and IC50 values of the compounds were calculated.
(ADP-Glo turns the ADP formed in a reaction into a luminescent signal.)
As usually defined, the IC50 is the concentration needed to halve the response being measured. Take `C[C@@H](CO)S(=O)(=O)Nc1ccc(C(=O)Nc2ccc(OCF)c(N3CCC(F)(F)CC3)c2)c(N2CCC3(CC2)CC3)c1` [Compound 397]: the IC50 is at most 0.1 µM.
The result for `CSc1ccc(NC(=O)c2cnc(NS(=O)(=O)CCO)cc2N2CCC3(CC2)CC3)cc1N1CC2CC2C1` (stereo not drawn) [Compound 618] reads at most 0.1 µM; that for `CSc1ccc(NC(=O)c2cnc(NS(=O)(=O)CCO)cc2N2CCC3(CC2)CC3)cc1OCCC(F)(F)F` [Compound 613], at most 0.1 µM; that for `CC(C)(CO)Nc1nc(C(=O)Nc2ccc(NS(=O)(=O)CCO)cc2N2CCC3(CC2)CC3)ccc1[N+](=O)[O-]` [Compound 171], at most 0.1 µM.
Take `C[C@@H]1CN(c2cc(NC(=O)c3ccc(NS(=O)(=O)[C@@H](C)CO)cc3N3CCC4(CC3)CC4)ccc2[N+](=O)[O-])CCO1` [Compound 15]: the IC50 is at most 0.1 µM.
The result for `O=C(Nc1ccc(OCF)c(N2CCC3(CC3)C2)n1)c1cnc(NS(=O)(=O)CCO)cc1N1CCC2(CC1)CC2` [Compound 486] reads at most 0.1 µM; that for `COc1ccc(C(=O)Nc2cnc(NS(=O)(=O)[C@@H](C)CO)cc2N2CCC3(CC2)CC3)nc1N1CCC(F)(F)CC1` [Compound 365], at most 0.1 µM.
The result for `CSc1ccc(NC(=O)c2ccc(NS(=O)(=O)[C@H](C)CO)cc2N2CCC3(CC2)CC3)nc1N1CCC(F)(F)CC1` [Compound 606] reads at most 0.1 µM; that for `O=C(Nc1ccc(S(=O)(=O)NCCO)cc1N1CCC2(CC1)CC2)c1ccc([N+](=O)[O-])c(N2CCC3(CC3)C2)c1` [Compound 54], 0.1 to 0.5 µM.
`COc1ccc(NC(=O)c2cnc(S(=O)(=O)NCCO)cc2N2CCC3(CC2)CC3)nc1N1CCOCC1` [Compound 316]: the IC50 was at most 0.1 µM.
On to `CSc1ccc(NC(=O)c2cnc(NS(=O)(=O)CCO)cc2N2CCC3(CC2)CC3)cc1N1CCO[C@@H](C)C1` [Compound 611], for which the IC50 was at most 0.1 µM.
As for `COc1ccc(NC(=O)c2ccc(NS(=O)(=O)CCO)cc2N2CCC3(CC2)CC3)nc1NC(C)(C)CO` [Compound 267], the figure is at most 0.1 µM.
The result for `C[C@H]1CN(c2cc(NC(=O)c3ccc(NS(=O)(=O)CCO)cc3N3CCC4(CC3)CC4)ccc2OCF)CCO1` [Compound 387] reads at most 0.1 µM; that for `COc1ccc(C(=O)Nc2cnc(S(=O)(=O)N[C@H](C)CO)cc2N2CCC3(CC2)CC3)nc1N1CCC(F)(F)CC1` [Compound 382], at most 0.1 µM.
As for `O=C(Nc1ccc(OCF)c(OCCC(F)(F)F)n1)c1cnc(NS(=O)(=O)CCO)cc1N1CCC2(CC1)CC2` [Compound 485], the figure is at most 0.1 µM; as for `CC1(F)CCN(c2nc(C(=O)Nc3ccc(NS(=O)(=O)CCO)cc3N3CCC4(CC3)CC4)ccc2OCF)C1` (stereo not drawn) [Compound 552], at most 0.1 µM.
As to `C[C@@H]1CN(c2cc(NC(=O)c3cnc(S(=O)(=O)NCCO)cc3N3CCC4(CC3)CC4)ccc2[N+](=O)[O-])CCO1` [Compound 114], the IC50 was at most 0.1 µM.
As for `O=C(Nc1ccc(OCF)c(N2CCC(F)(F)CC2)n1)c1ccc(NS(=O)(=O)CCO)cc1N1CCC2(CC1)CC2` [Compound 417], the figure is at most 0.1 µM; as for `CC(C)(CO)Nc1nc(NC(=O)c2ccc(S(=O)(=O)NCCO)cc2N2CCC3(CC2)CC3)ccc1[N+](=O)[O-]` [Compound 91], at most 0.1 µM; as for `C[C@@H]1CN(c2nc(C(=O)Nc3cnc(S(=O)(=O)N[C@@H](C)CO)cc3N3CCC4(CC3)CC4)ccc2[N+](=O)[O-])CCO1` [Compound 255], 0.1 to 0.5 µM.
`CSc1ccc(NC(=O)c2cnc(NS(=O)(=O)[C@@H](C)CO)cc2N2CCC3(CC2)CC3)nc1N1CCC(F)(F)CC1` [Compound 637]: the IC50 is at most 0.1 µM.
Consider `C[C@@H]1CN(c2cc(NC(=O)c3ccc(S(=O)(=O)N[C@@H](C)CO)cc3N3CCC4(CC3)CC4)ccc2[N+](=O)[O-])CCO1` [Compound 31], for which the IC50 is at most 0.1 µM.
As for `C[C@@H]1CN(c2nc(NC(=O)c3cnc(S(=O)(=O)N[C@@H](C)CO)cc3N3CCC4(CC3)CC4)ccc2[N+](=O)[O-])CCO1` [Compound 159], the IC50 is at most 0.1 µM.
On to `COc1ccc(NC(=O)c2cnc(S(=O)(=O)NCCO)cc2N2CCC3(CC2)CC3)nc1OCCC(F)(F)F` [Compound 309], for which the IC50 was at most 0.1 µM.
Take `O=C(Nc1ccc(OCF)c(OC2CCC2)c1)c1ccc(S(=O)(=O)NCCO)cc1N1CCC2(CC1)CC2` [Compound 407]: the IC50 was at most 0.1 µM.
As for `O=C(Nc1ccc([N+](=O)[O-])c(OC2CCC2)n1)c1cnc(S(=O)(=O)NCCO)cc1N1CCC2(CC1)CC2` [Compound 151], the figure is at most 0.1 µM; as for `CSc1ccc(NC(=O)c2ccc(NS(=O)(=O)CCO)cc2N2CCC3(CC2)CC3)cc1N1CCC(F)CC1` [Compound 585], at most 0.1 µM; as for `O=C(Nc1ccc(NS(=O)(=O)CCO)cc1N1CCC2(CC1)CC2)c1ccc(OCF)c(OCCC(F)(F)F)n1` [Compound 549], at most 0.1 µM.
As for `CSc1ccc(NC(=O)c2cnc(NS(=O)(=O)CCO)cc2N2CCC3(CC2)CC3)nc1OCCC(F)(F)F` [Compound 629], the figure is at most 0.1 µM; as for `COc1ccc(C(=O)Nc2ccc(NS(=O)(=O)CCO)cc2N2CCC3(CC2)CC3)nc1N1CCC2(CC2)C1` [Compound 326], at most 0.1 µM; as for `CC1(F)CCN(c2nc(NC(=O)c3ccc(NS(=O)(=O)CCO)cc3N3CCC4(CC3)CC4)ccc2[N+](=O)[O-])C1` (stereo not drawn) [Compound 72], at most 0.1 µM.
In the case of `CSc1ccc(NC(=O)c2cnc(NS(=O)(=O)CCO)cc2N2CCC3(CC2)CC3)cc1N1CC(F)(F)C1` [Compound 612], the IC50 was at most 0.1 µM.
Take `O=C(Nc1ccc([N+](=O)[O-])c(OCCC(F)(F)F)n1)c1cnc(NS(=O)(=O)CCO)cc1N1CCC2(CC1)CC2` [Compound 133]: the IC50 is at most 0.1 µM.
Turning to `O=C(Nc1ccc(S(=O)(=O)NCCO)cc1N1CCC2(CC1)CC2)c1ccc(OCF)c(OC2CCC2)c1` [Compound 535], the IC50 fell in the range of 0.1 to 0.5 µM.
The result for `CSc1ccc(NC(=O)c2cnc(NS(=O)(=O)[C@H](C)CO)cc2N2CCC3(CC2)CC3)cc1N1CCO[C@H](C)C1` [Compound 624] reads at most 0.1 µM; that for `CC(C)(CO)Nc1nc(NC(=O)c2ccc(NS(=O)(=O)CCO)cc2N2CCC3(CC2)CC3)ccc1[N+](=O)[O-]` [Compound 75], at most 0.1 µM; that for `CSc1ccc(NC(=O)c2ccc(NS(=O)(=O)CCO)cc2N2CCC3(CC2)CC3)cc1N1CCOCC1` [Compound 588], at most 0.1 µM.
The result for `C[C@@H]1CN(c2nc(C(=O)Nc3ccc(NS(=O)(=O)[C@H](C)CO)cc3N3CCC4(CC3)CC4)ccc2OCF)CCO1` [Compound 560] reads at most 0.1 µM.
For the compound `O=C(Nc1ccc([N+](=O)[O-])c(OCCC(F)(F)F)c1)c1ccc(S(=O)(=O)NCCO)cc1N1CCC2(CC1)CC2` [Compound 21], the IC50 was at most 0.1 µM.
The result for `C[C@H](CO)NS(=O)(=O)c1ccc(NC(=O)c2ccc([N+](=O)[O-])c(N3CCO[C@H](C)C3)n2)c(N2CCC3(CC2)CC3)c1` [Compound 192] reads 0.1 to 0.5 µM; that for `C[C@H]1CN(c2cc(C(=O)Nc3ccc(S(=O)(=O)NCCO)cc3N3CCC4(CC3)CC4)ccc2OCF)CCO1` [Compound 403], at most 0.1 µM; that for `O=C(Nc1ccc(OCF)c(N2CC(F)(F)C2)n1)c1ccc(NS(=O)(=O)CCO)cc1N1CCC2(CC1)CC2` [Compound 420], at most 0.1 µM.
For `COc1ccc(C(=O)Nc2cnc(NS(=O)(=O)[C@H](C)CO)cc2N2CCC3(CC2)CC3)nc1N1CCC(F)(F)CC1` [Compound 366], the IC50 was at most 0.1 µM.
The result for `CC(C)(CO)Nc1cc(NC(=O)c2ccc(S(=O)(=O)NCCO)cc2N2CCC3(CC2)CC3)ccc1[N+](=O)[O-]` [Compound 27] reads at most 0.1 µM; that for `O=C(Nc1cnc(S(=O)(=O)NCCO)cc1N1CCC2(CC1)CC2)c1ccc([N+](=O)[O-])c(N2CCC3(CC3)C2)c1` [Compound 214], 0.1 to 0.5 µM.
As for `O=C(Nc1ccc([N+](=O)[O-])c(OC2CCC2)c1)c1cnc(S(=O)(=O)NCCO)cc1N1CCC2(CC1)CC2` [Compound 119], the figure is at most 0.1 µM; as for `COc1ccc(C(=O)Nc2ccc(S(=O)(=O)N[C@@H](C)CO)cc2N2CCC3(CC2)CC3)nc1N1CCO[C@H](C)C1` [Compound 351], at most 0.1 µM; as for `CC1(F)CCN(c2cc(NC(=O)c3ccc(NS(=O)(=O)CCO)cc3N3CCC4(CC3)CC4)ccc2[N+](=O)[O-])C1` (stereo not drawn) [Compound 8], at most 0.1 µM.
`O=C(Nc1ccc(S(=O)(=O)NCCO)cc1N1CCC2(CC1)CC2)c1ccc([N+](=O)[O-])c(OC2CCC2)c1` [Compound 55]: the IC50 lay in the range of 0.1 to 0.5 µM.
As for `O=C(Nc1ccc([N+](=O)[O-])c(N2CC3CC3C2)n1)c1ccc(NS(=O)(=O)CCO)cc1N1CCC2(CC1)CC2` (stereo not drawn) [Compound 74], the figure is at most 0.1 µM.
The result for `CSc1ccc(NC(=O)c2cnc(NS(=O)(=O)CCO)cc2N2CCC3(CC2)CC3)nc1NC(C)(C)CO` [Compound 635] reads at most 0.1 µM; that for `C[C@@H](CO)NS(=O)(=O)c1cc(N2CCC3(CC2)CC3)c(NC(=O)c2ccc([N+](=O)[O-])c(N3CCC(F)(F)CC3)c2)cn1` [Compound 221], 0.1 to 0.5 µM.
The result for `COc1ccc(C(=O)Nc2cnc(S(=O)(=O)NCCO)cc2N2CCC3(CC2)CC3)nc1N1CCC(F)CC1` [Compound 377] reads at most 0.1 µM; that for `COc1ccc(NC(=O)c2ccc(NS(=O)(=O)[C@H](C)CO)cc2N2CCC3(CC2)CC3)nc1N1CCC(F)(F)CC1` [Compound 270], at most 0.1 µM.
